Experimental data taken from patent US20140066394A1, “Substituted 6-(Benzylamino) Purine Riboside Derivatives, Use Thereof and Compositions Containing These Derivatives” (Biopatterns, S.R.O, priority 2009, published 2014).

Tests used:
neutrophils [1] = experiment: ANCA stimulated neutrophil degranulation (MPO release, ELISA); format: cell-based; details: Homo sapiens, 0.5 h, TNFα primed, MPO release over 30 minute period (FIG. 10), read-out: IC50 of inhibition of ANCA stimulated neutrophil degranulation
Experimental: FIG. 10 Inhibition of ANCA induced neutrophil degranulation by compound 10. Neutrophils were cultured at 2×10^6 cells/ml in RPMI1640 medium containing human serum antibiotics and 20 ng/ml TNFα for 10 minutes prior to addition of ANCA (1=MPO ANCA; 2=PR3 ANCA) and a range of concentrations of compound 10. Release of MPO was monitored after a 30 minute period by ELISA.
ANCA are predominantly IgG autoantibodies directed against constituents of primary granules of neutrophils (PR3 and MPO). ANCA associated vasculitis is the most common primary systemic small-vessel vasculitis in adults. […] Neutrophils were cultured for 10 hours in RPMI1640 medium containing 2% human AB serum, 2 mM L-glutamine and antibiotics (100 U/ml penicillin, […] streptomycin) and their apoptosis determined by staining with Giemsa stain and observing an apoptotic morphology by light microscopy. […] The ability of compound 10 to inhibit ANCA-induced neutrophil inflammatory functions was also determined Neutrophils were cultured in RPMI1640 medium containing 2% human AB serum, 2 mM L-glutamine and antibiotics (100 U/ml penicillin, […] streptomycin). […] ANCA stimulated degranulation of neutrophils was assessed by release of myeloperoxidase in to the medium over a 30 minute period, with MPO measured by ELISA. […] HUVEC viability was determined by trypan blue staining and light microscopy.

neutrophils [2] = experiment: Neutrophil adhesion, rolling and migration under flow over TNF primed HUVEC; format: cell-based, human
Experimental: Neutrophils were introduced into a flow based cell adhesion instrument at 5×10^6 cells/ml in medium containing 50 or 100 μM of compound 10. The capillary system is lined with TNF-primed HUVEC and cell adhesion, rolling and transmigration is monitored by time-lapse video microscopy. Data are expressed as cells adhered to HUVEC per mm^2, per 10^6 cells (left panel) or % of cells rolling or migrated (right panel). LGR 1406 (N-5-(2-aminocyclohexyl)-N-7-benzyl-3-isopropyl-1(2)H-pyrazolo[4,3-d]pyrimidine-5,7-diamine, Sroka et al. Mol Pharmacol. 2010; 77(2):255-61) was used as a negative control. Data are mean±SD of 3 separate experiments.
LGR 1406 as a negative control.
The ability of neutrophils to adhere to vascular endothelium and migrate from the blood into tissue, is the first step in the inflammatory process. Interference with this process would also result in suppression of inflammation. Neutrophils were flowed over TNF primed endothelial cells (HUVEC) lining a capillary based migration system, at flows rates and pressures mimicking the in vivo vasculature (see for detailed description of apparatus). Cells were recorded using time-lapse video microscopy and the numbers of rolling, adhered and transmigrated cells were enumerated over a 20 minute period. In test incubations the neutrophils and HUVEC were pre-treated with compound 10 at 50 and 100 μM and the compound was also present in the medium in which neutrophils were suspended.

[3] = compound at 50 and 100 μM, 20 minute period

IC50 (neutrophils [1]): 3000 nM
SMILES: COc1cccc(CNc2nc(Cl)nc3c2ncn3C2OC(CO)C(O)C2O)c1O (stereo not shown) [Compound 10, 2-Chloro-6-(2-hydroxy-3-methoxybenzylamino)purine riboside]
neutrophil rolling velocity (neutrophils [2]; FIG. 7, LGR 1406 as negative control): positive effects | number of cells that adhered and transmigrated through the endothelial layer (neutrophils [2]; [3]): reduced the number of cells that adhered and transmigrated | number of cells that rolled over the endothelium (neutrophils [2]; [3]): increased the ones that rolled over the endothelium
